Measurements reported in ChEMBL document CHEMBL1150029, “QSAR of HIV inhibitors” (Bioorg Med Chem Lett, 1992).
Several values for one entry are separate records, joined by “and”; a condition that tells them apart may be missing. Equal entries are not always repeated. Activity calls are given as the source filed them. The rule behind the calls is not given here.

Experiments:
[1] = system: MT4; assay: Tested for 50% protection of MT-4 cells from HIV infection; format: functional
[2] = system: ATH-8 cell line; assay: Compound was tested for % Protection of ATH8 cells from HIV infection by 2 pM concentration of nucleoside; inactive; format: functional, cell-based; conditions: Homo sapiens
[3] = system: ATH-8 cell line; assay: Compound was tested for % Protection of ATH8 cells from HIV infection by 2 pM concentration of nucleoside; format: functional, Homo sapiens

Structure (SMILES) | Log 1/C [1] | also measured
Cc1c(Sc2cccc([N+](=O)[O-])c2)n(COCCO)c(=O)[nH]c1=O | 4.47 | 
CCc1cccc(Sc2c(C)c(=O)[nH]c(=O)n2COCCO)c1 | 5.57 | 
Cc1ccc(Sc2c(C)c(=O)[nH]c(=O)n2COCCO)cc1 | 3.66 | 
COc1cccc(Sc2c(C)c(=O)[nH]c(=O)n2COCCO)c1 | 4.66 | 
Cc1c(Sc2cccc(C#N)c2)n(COCCO)c(=O)[nH]c1=O | 5 | 
CCc1c(Sc2cc(Cl)cc(Cl)c2)n(COCCO)c(=O)[nH]c1=O | 7.85 | 
Cc1cc(C)cc(Sc2c(C)c(=O)[nH]c(=S)n2COCCO)c1 | 6.66 | 
Cc1c(Sc2cccc(C(F)(F)F)c2)n(COCCO)c(=O)[nH]c1=O | 4.35 | 
Cc1ccccc1Sc1c(C)c(=O)[nH]c(=O)n1COCCO | 4.15 | 
Cc1c(Sc2ccccc2[N+](=O)[O-])n(COCCO)c(=O)[nH]c1=O | 3.85 | 
C=CCc1c(Sc2ccccc2)n(COCCO)c(=O)[nH]c1=O | 5.6 | 
OCC1CCC(n2cnc3c(S)ncnc32)O1 (stereo unspecified) |  | Log [2]: inactive
CC(C)c1c(Sc2ccccc2)n(COCCO)c(=S)[nH]c1=O | 7.23 | 
COC(=O)c1cccc(Sc2c(C)c(=O)[nH]c(=O)n2COCCO)c1 | 5.1 | 
Nc1nc(Cl)nc2c1ncn2C1CCC(CO)O1 (stereo unspecified) |  | Log [3]: 0%
CCc1c(Sc2ccccc2)n(COCCO)c(=O)[nH]c1=O | 6.92 and 6.96 | 

Structure (SMILES) | Log 1/C [1] | also measured
CCc1c(Sc2cc(C)cc(C)c2)n(COCCO)c(=S)[nH]c1=O | 8.11 | 
CC(C)c1c(Sc2ccccc2)n(COCCO)c(=O)[nH]c1=O | 7.2 | 
Cc1c(Sc2cccc(O)c2)n(COCCO)c(=O)[nH]c1=O | 4.09 | 
Cc1c(Sc2cccc(F)c2)n(COCCO)c(=O)[nH]c1=O | 5.48 | 
CCCc1c(Sc2ccccc2)n(COCCO)c(=S)[nH]c1=O | 5 | 
Cc1c(Sc2cccc(C(C)(C)C)c2)n(COCCO)c(=O)[nH]c1=O | 4.92 | 
COCc1cccc(Sc2c(C)c(=O)[nH]c(=O)n2COCCO)c1 | 5.14 | 
Cc1c(Sc2cccc(Cl)c2)n(COCCO)c(=O)[nH]c1=O | 4.89 | 
CCCc1c(Sc2ccccc2)n(COCCO)c(=O)[nH]c1=O | 5.47 | 
CCc1c(Sc2cc(Cl)cc(Cl)c2)n(COCCO)c(=S)[nH]c1=O | 7.37 | 
Cc1cccc(Sc2c(C)c(=O)[nH]c(=O)n2COCCO)c1 | 5.59 | 
Cc1c(Sc2cccc(I)c2)n(COCCO)c(=O)[nH]c1=O | 5 | 
COc1ccccc1Sc1c(C)c(=O)[nH]c(=O)n1COCCO | 4.72 | 
Cc1c(Sc2cccc(Br)c2)n(COCCO)c(=O)[nH]c1=O | 5.24 | 
Cc1cc(C)cc(Sc2c(C(C)C)c(=O)[nH]c(=S)n2COCCO)c1 | 8.3 | 
